{
  "source": "patent US10076496B2",
  "about": "“Engineering of polymer-stabilized nanoparticles for drugs with Log P values below 6 by controlled antisolvent precipitation” (THE CHINESE UNIVERSITY OF HONG KONG, priority 2011, dated 2018)",
  "origin": "cited, not measured here",
  "data": [
    {"smiles": "CC(=O)O[C@H]1C(=O)[C@@]2(C)[C@H]([C@H](OC(=O)c3ccccc3)[C@]3(O)C[C@H](OC(=O)[C@H](O)[C@@H](NC(=O)c4ccccc4)c4ccccc4)C(C)=C1C3(C)C)[C@]1(OC(C)=O)CO[C@@H]1C[C@@H]2O", "note": "[paclitaxel]", "values": [
      {"measurement": "Log P", "result": 7.38}
    ]}
  ]
}
